In PMC8807399, “Synthesis, Characterization, and in vivo Evaluation of a Novel Potent Autotaxin-Inhibitor” (Frontiers in Pharmacology, 2022):
In brackets after ≈: the same amount, converted by molar mass.

What was measured:
[1] = Lipophilicity (LogD, octanol/buffer); assay type: physicochemical; conditions: 1-octanol / 25 mM phosphate buffer; pH 7.4, octanol/25 mM phosphate buffer
Procedure: The experiment started with the accurate coating of the hydrophobic layer (0.45 µm PVDF membranes), which was fixed on the bottom of each DIFI©-tube (Weidmann Medical Technology AG, Rapperswil, Switzerland). The coated membranes were then connected to a 96-well plate which has been prefilled with exactly 150 µl of the selected aqueous buffer solution (25 mM phosphate buffer, pH 7.4). The buffer solution contains already the compound of interest with a maximum starting concentration of 85 µM. To expand the measurement range down to logD = −0.5 and up to logD = +4, it is necessary to carry out the procedure at two different octanol/water ratios: One with an excess of octanol for hydrophilic compounds (logD < 1) and one with a low volume of octanol for the lipophilic compounds (logD > 1). Therefore, parts of the DIFI©-tubes were filled with 15 µl 1-octanol and another part with 1 µl 1-octanol. The resulting sandwich guarantees that the membrane was completely dipped in the buffer solution. The plate was then sealed and shaken for 12 h at room temperature (23°C). During this time, the substance is distributed between the layer, the octanol, and the buffer solution. After having reached a distribution equilibrium, the DIFI©-tubes were easily disassembled from the top of the 96-well plate, so that the remaining sample concentration in the aqueous phase could be analyzed by LC/MS.

[2] = target: T1, 5HT3 (Homo sapiens, UniProt P46098); test: Off-target screen 5HT3; assay type: binding; conditions: 10 µM; single point, duplicates
T1 construct: purchased Eurofins CEREP SA
T1 sequence (P46098 24-478): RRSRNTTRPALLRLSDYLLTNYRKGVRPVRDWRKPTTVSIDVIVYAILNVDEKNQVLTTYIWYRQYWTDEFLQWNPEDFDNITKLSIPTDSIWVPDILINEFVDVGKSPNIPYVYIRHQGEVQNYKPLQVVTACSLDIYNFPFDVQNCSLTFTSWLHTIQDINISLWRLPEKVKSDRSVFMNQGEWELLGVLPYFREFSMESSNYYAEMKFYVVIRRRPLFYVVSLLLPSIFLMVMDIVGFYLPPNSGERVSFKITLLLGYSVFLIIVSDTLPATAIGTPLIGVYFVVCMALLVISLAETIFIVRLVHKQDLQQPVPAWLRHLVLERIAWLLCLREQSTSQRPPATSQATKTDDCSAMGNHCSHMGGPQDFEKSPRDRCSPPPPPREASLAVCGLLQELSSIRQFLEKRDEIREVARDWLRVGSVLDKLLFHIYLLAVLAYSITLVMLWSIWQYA

[3] = target: T2, PPARγ (Homo sapiens, UniProt P37231); test: Off-target screen PPARγ, antagonist mode; assay type: cell-based; conditions: 10 µM, single point, duplicates
T2 construct: purchased Eurofins CEREP SA

[4] = target: T3, Carbonic anhdrase II (Homo sapiens, UniProt P00918); test: Off-target screen Carbonic anhydrase II; assay type: biochemical; conditions: 10 µM; single point, duplicates
T3 construct: purchased Eurofins CEREP SA

[5] = system: Sigma; test: Off-target screen Sigma; conditions: 10 µM; single point, duplicates
[6] = target: T4, Cyclooxygenase 2 (Homo sapiens, UniProt P35354); test: Off-target screen Cyclooxygenase 2; assay type: biochemical; conditions: 10 µM; single point, duplicates
T4 construct: purchased Eurofins CEREP SA
T4 sequence (P35354 18-604): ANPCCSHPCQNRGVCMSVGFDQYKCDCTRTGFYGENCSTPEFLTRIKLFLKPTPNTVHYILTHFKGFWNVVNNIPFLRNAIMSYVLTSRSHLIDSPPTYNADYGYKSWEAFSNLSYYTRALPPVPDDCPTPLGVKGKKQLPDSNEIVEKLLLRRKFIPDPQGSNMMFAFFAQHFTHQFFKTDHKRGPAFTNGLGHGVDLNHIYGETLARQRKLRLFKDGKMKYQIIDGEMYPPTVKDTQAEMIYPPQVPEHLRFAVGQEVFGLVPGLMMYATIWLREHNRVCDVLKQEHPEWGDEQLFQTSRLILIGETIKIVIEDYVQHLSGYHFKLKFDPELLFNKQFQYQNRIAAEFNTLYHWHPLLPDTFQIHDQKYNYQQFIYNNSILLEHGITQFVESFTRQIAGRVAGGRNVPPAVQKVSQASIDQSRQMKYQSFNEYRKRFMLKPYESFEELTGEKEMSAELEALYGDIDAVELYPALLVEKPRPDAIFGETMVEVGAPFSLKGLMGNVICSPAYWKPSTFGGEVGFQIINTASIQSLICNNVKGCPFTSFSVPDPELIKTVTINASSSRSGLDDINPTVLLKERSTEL

[7] = system: GABA-A (benzodiazepine site); test: Off-target screen GABA-A (benzodiazepine site); conditions: 10 µM; single point, duplicates
[8] = target: T5, ZAP70 (Homo sapiens, UniProt P43403); test: Off-target screen ZAP70; assay type: biochemical; conditions: 10 µM; single point, duplicates
T5 construct: purchased Eurofins CEREP SA

[9] = target: T6, Androgen receptor (Homo sapiens, UniProt P10275); test: Off-target screen Androgen receptor; assay type: binding; conditions: 10 µM; single point, duplicates
T6 construct: purchased Eurofins CEREP SA
T6 sequence (P10275 whole entry): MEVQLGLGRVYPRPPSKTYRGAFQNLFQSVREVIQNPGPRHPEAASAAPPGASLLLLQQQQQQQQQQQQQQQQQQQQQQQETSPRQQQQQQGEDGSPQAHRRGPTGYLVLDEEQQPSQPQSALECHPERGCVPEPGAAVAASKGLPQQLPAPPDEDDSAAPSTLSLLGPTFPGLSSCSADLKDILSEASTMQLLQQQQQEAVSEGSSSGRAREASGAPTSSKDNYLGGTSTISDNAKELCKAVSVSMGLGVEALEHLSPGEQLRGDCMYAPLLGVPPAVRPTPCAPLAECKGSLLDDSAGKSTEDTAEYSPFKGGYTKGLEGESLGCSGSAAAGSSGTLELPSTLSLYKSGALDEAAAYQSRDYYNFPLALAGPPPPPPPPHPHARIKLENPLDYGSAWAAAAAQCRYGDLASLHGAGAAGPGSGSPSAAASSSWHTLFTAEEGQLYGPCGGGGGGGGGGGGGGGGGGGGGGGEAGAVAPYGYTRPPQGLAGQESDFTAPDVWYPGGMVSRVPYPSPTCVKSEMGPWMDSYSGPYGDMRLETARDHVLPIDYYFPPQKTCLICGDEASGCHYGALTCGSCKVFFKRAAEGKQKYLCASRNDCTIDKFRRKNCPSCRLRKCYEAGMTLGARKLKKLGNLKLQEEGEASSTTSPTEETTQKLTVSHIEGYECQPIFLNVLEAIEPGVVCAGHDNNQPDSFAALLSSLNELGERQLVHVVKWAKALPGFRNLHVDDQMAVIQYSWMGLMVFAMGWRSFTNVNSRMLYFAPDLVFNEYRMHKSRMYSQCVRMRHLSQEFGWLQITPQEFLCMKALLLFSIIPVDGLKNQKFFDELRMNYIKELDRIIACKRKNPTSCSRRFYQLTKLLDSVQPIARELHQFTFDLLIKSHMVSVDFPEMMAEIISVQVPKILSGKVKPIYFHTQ

[10] = system: total basal plasma LPA; test: Plasma LPA profile in rat (PK/PD), basal LPA; assay type: in vivo
Procedure: Plasma samples were collected in triplicates at 0, 1, 3, 6, and 24 h and were added to heparinated tubes and kept at 0°C until further processing. Sampling and immediate processing at 0°C is crucial for the measurements of basal levels, since at higher temperatures, LPA is produced rapidly according to the ATX activity in the sample. One aliquot was used to determine basal levels of LPAs 16:0, 18:0, 18:1, and 20:4 as well as exposure of 13 by LC-MS/MS. A detailed method for LPA analysis is described in the Supplementary Material Section 1.3. The other 2 aliquots were used to determine ATX activity by incubation of the sample at 37°C for 4 h, followed again by analysis of LPA levels in the same way as for the basal LPA levels. LPA profiles were analyzed using MS Excel (Microsoft Corporation).
Therefore, modulation of total basal LPA was largely driven by modulation of LPA 20:4 (Figure 2A).

[11] = target: T7, GSK-3A (Homo sapiens, UniProt P49840); test: Off-target screen GSK-3A; assay type: biochemical; conditions: 10 µM; single point, duplicates
T7 construct: purchased Eurofins CEREP SA
T7 sequence (P49840 whole entry): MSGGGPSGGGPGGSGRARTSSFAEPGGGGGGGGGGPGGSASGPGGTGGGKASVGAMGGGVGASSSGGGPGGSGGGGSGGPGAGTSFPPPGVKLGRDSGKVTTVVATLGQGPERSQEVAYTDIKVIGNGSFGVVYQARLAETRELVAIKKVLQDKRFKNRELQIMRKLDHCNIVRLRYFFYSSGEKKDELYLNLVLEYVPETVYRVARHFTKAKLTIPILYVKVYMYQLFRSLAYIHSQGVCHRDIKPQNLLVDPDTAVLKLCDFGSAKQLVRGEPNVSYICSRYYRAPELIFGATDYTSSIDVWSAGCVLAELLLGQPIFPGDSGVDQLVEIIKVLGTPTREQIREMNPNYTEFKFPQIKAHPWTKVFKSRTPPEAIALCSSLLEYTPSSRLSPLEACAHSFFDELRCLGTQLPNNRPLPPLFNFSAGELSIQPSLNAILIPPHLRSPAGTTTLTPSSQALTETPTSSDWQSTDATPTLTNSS

[12] = target: T8, PDE-5 (Homo sapiens, UniProt O76074); test: Off-target screen PDE-5; assay type: biochemical; conditions: 10 µM; single point, duplicates
T8 construct: purchased Eurofins CEREP SA

[13] = target: T9, LPA3 receptor (Homo sapiens, UniProt Q9UBY5); test: Off-target screen LPA3 receptor, agonist mode; assay type: cell-based; conditions: 10 µM, single point, duplicates
T9 construct: purchased Eurofins CEREP SA
T9 sequence (Q9UBY5 whole entry): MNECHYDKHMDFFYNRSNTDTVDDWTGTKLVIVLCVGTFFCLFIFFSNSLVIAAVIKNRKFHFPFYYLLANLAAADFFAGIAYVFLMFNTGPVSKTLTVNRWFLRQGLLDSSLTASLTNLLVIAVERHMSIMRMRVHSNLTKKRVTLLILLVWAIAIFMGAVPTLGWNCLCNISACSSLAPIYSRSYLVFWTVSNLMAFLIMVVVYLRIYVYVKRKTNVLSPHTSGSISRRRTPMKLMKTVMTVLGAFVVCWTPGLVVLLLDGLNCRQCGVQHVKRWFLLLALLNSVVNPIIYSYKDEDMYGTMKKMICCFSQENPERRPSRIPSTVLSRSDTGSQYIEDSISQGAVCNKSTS

[14] = target: T10, Estrogen receptor alpha (Homo sapiens, UniProt P03372); test: Off-target screen Estrogen receptor alpha; assay type: binding; conditions: 10 µM; single point, duplicates
T10 construct: purchased Eurofins CEREP SA

[15] = target: T11, Muscarinic receptor M2 (Homo sapiens, UniProt P08172); test: Off-target screen Muscarinic M2; assay type: binding; conditions: 10 µM; single point, duplicates
T11 construct: purchased Eurofins CEREP SA
T11 sequence (P08172 whole entry): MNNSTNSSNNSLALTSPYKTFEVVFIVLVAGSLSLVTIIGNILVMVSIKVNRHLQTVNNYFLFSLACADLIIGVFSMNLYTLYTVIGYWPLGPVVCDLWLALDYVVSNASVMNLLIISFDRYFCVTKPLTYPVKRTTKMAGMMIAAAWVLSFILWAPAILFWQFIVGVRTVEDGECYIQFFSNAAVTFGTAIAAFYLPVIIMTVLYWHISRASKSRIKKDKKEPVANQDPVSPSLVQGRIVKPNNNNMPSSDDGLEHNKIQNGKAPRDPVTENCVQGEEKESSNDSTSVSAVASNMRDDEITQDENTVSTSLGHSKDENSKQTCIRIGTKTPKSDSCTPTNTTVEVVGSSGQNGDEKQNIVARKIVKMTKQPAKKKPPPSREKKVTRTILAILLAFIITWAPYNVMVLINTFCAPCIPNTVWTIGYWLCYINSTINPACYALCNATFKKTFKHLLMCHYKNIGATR

[16] = target: T12, 5HT2B (Homo sapiens, UniProt P41595); test: Off-target screen 5HT2B; assay type: binding; conditions: 10 µM; single point, duplicates
T12 construct: purchased Eurofins CEREP SA

[17] = target: T13, HDAC6 (Homo sapiens, UniProt Q9UBN7); test: Off-target screen HDAC6; assay type: biochemical; conditions: 10 µM; single point, duplicates
T13 construct: purchased Eurofins CEREP SA
T13 sequence (Q9UBN7 whole entry): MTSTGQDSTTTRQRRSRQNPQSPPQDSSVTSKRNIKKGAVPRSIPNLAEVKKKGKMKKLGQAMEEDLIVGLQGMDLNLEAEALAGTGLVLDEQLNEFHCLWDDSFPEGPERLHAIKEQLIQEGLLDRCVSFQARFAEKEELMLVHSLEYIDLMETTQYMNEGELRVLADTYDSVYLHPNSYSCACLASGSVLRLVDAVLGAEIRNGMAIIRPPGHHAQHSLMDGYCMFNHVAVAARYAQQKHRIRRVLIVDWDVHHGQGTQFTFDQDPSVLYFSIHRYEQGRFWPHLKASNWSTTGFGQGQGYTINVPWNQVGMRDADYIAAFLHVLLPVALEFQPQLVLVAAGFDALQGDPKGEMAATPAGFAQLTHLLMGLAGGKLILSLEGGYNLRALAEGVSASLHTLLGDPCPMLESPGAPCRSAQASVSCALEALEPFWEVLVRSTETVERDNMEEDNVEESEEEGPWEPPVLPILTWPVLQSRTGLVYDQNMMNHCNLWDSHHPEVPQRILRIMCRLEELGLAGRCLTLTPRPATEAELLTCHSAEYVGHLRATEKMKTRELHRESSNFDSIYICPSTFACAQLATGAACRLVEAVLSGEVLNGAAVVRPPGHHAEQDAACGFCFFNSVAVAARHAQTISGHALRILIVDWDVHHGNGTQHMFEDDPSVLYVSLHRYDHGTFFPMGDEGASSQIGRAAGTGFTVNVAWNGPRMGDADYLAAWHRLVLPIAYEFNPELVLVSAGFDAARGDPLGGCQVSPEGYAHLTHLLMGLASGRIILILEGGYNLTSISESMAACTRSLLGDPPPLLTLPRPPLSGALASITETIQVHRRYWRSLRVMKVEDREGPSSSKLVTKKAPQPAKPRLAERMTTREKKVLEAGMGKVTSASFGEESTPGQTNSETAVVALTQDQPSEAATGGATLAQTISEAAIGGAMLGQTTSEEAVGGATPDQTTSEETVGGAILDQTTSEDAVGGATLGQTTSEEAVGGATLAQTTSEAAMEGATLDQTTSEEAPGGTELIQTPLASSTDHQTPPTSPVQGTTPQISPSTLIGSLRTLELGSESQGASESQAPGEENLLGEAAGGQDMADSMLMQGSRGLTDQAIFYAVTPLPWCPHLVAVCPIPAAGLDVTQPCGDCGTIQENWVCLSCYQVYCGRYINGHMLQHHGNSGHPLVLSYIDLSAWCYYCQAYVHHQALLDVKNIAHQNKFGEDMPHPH

[18] = target: T9, LPA3 receptor; test: Off-target screen LPA3 receptor, antagonist mode; assay type: cell-based; conditions: 10 µM, single point, duplicates
[19] = target: T14, Dopamine D2 receptor (Homo sapiens, UniProt P14416); test: Off-target screen Dopamine D2; assay type: binding; conditions: 10 µM; single point, duplicates
T14 construct: purchased Eurofins CEREP SA

[20] = target: T15, HDAC11 (Homo sapiens, UniProt Q96DB2); test: Off-target screen HDAC11; assay type: biochemical; conditions: 10 µM; single point, duplicates
T15 construct: purchased Eurofins CEREP SA
T15 sequence (Q96DB2 whole entry): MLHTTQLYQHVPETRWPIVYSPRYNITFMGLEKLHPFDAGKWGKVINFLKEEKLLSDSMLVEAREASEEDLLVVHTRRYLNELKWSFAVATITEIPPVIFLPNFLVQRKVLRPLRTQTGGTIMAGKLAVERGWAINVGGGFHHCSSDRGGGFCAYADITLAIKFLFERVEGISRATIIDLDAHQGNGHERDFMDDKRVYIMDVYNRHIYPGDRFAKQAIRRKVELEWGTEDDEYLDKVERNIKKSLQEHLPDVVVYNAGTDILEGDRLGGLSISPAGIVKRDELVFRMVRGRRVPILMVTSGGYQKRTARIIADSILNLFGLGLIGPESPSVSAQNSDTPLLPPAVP

**Q.** Which results are given for `O=C(OCc1ccc(OC(F)(F)F)cc1)N1C[C@@H]2CN(C(=O)c3ccc4[nH]nnc4c3)C[C@H]2C1` [Compound 13, (3aS,6aS)-5-(1H-Benzotriazole-5-carbonyl)-hexahydro-pyrrolo[3,4-c]pyrrole-2-carboxylic acid 4-trifluoromethoxy-benzyl ester]?
**A.** logD at 12 h [1]: 3.2; 5HT3 (h) [% inhib] [2]: -2 % inhib; PPARγ (h), antago. mode [% inhib] [3]: 6 % inhib; Carbonic anhdrase II (h) [% inhib] [4]: -6 % inhib; Sigma (h) [% inhib] [5]: 38 % inhib; Cyclooxygenase 2 (h) [% inhib] [6]: 1 % inhib; GABA-A (benzodiazepine site) (r) [% inhib] [7]: -26 % inhib; ZAP70 (h) [% inhib] [8]: 9 % inhib; Androgen receptor (h) [% inhib] [9]: -1 % inhib; IC50 ([10]; Rattus norvegicus, free plasma concentration, male Wistar rats, 3, 10, 30 mg/kg po, sum of LPA 16:0, 18:0, 18:1, 20:4, read-out: IC50 for the lowering of total basal LPA): ~3.2 ng/mL (≈ 6.73 nM); Estimated average ATX inhibition ([10]; rat, food admix 20 mg/kg, 2-weeks study at steady state, estimated from PK/PD relationship): > 75%; GSK-3A (h) [% inhib] [11]: -11 % inhib; PDE-5 (h) [% inhib] [12]: 19 % inhib; LPA3 receptor (h), agonist mode [% pos ctrl] [13]: -3 % pos ctrl; Estrogen receptor alpha (h) [% inhib] [14]: -6 % inhib; Muscarinic receptor M2 (h) [% inhib] [15]: -15 % inhib; 5HT2B (h) [% inhib] [16]: -3 % inhib; HDAC6 (h) [% inhib] [17]: -14 % inhib; LPA3 receptor (h), antago. mode [% inhib] [18]: 56 % inhib; Dopamine D2 receptor (h) [% inhib] [19]: 4 % inhib; HDAC11 (h) [% inhib] [20]: 0 % inhib
